Measurements taken from publication PMC9090415, “Discovery of small molecule inhibitors of Plasmodium falciparum apicoplast DNA polymerase” (Journal of Enzyme Inhibition and Medicinal Chemistry, 2022).

Target: P. falciparum apicoplast DNA polymerase (Pf-apPOL) (Plasmodium falciparum, UniProt Q8ILY1)
Test: Fluorescence-based high-throughput DNA polymerase assay (molecular beacon), primary screen and dose-response
Assay type: biochemical
Procedure, shortened: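 Single-point screening used 10 µM compound with 20 nM polymerase, 20 nM hairpin substrate and 6 µM dNTPs for 90 min at 25 °C. Confirmatory titrations (2.5–80 µM) followed fluorescence at three times, and IC50 was derived from a fit including a cooperativity term n.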

Sequence of P. falciparum apicoplast DNA polymerase (Pf-apPOL) (Q8ILY1 entry or part of it): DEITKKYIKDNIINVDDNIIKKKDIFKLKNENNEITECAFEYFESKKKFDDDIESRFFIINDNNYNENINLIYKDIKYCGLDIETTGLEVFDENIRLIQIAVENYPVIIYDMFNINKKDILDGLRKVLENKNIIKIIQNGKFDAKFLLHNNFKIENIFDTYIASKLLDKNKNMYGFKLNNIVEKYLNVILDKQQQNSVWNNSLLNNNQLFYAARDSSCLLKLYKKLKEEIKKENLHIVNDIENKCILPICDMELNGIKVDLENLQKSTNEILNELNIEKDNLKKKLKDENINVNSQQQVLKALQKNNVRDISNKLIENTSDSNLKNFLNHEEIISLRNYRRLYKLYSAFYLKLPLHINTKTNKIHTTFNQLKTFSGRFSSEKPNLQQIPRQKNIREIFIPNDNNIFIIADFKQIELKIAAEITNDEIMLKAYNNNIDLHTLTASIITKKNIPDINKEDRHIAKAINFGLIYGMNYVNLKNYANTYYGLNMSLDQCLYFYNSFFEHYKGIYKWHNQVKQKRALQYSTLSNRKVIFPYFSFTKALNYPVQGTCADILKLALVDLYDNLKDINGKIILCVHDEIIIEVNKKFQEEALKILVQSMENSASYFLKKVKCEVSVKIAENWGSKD

O=C(NNC(=O)C(F)(F)Sc1ccccc1)c1ccsc1 [Molecule 68, O=C(C(Sc1ccccc1)(F)F)NNC(=O)c1cscc1]
DNA Pol ('DNA Pol'; screening value, unit not given; 90 min, 10 µM): 82 | % inhibition Apo pol 10' (DRC-1; 10'; concentration 2.5): 18.9007% | % inhibition Apo pol 10' (DRC-1; 10'; concentration 5): 22.6096% | % inhibition Apo pol 10' (DRC-1; 10'; concentration 10): 35.002% | % inhibition Apo pol 10' (DRC-1; 10'; concentration 20): 47.6682% | % inhibition Apo pol 10' (DRC-1; 10'; concentration 40): 67.1681% | % inhibition Apo pol 10' (DRC-1; 10'; concentration 80): 81.7014% | % inhibition Apol 90' (DRC-1; 90'; concentration 2.5): -2.054% | % inhibition Apol 90' (DRC-1; 90'; concentration 5): 4.132% | % inhibition Apol 90' (DRC-1; 90'; concentration 10): 13.2706% | % inhibition Apol 90' (DRC-1; 90'; concentration 20): 25.6835% | % inhibition Apol 90' (DRC-1; 90'; concentration 40): 44.8257% | % inhibition Apol 90' (DRC-1; 90'; concentration 80): 64.9924% | % inhibition apPOL 180' (DRC-1; 180'; concentration 2.5): -9.701% | % inhibition apPOL 180' (DRC-1; 180'; concentration 5): -6.4745% | % inhibition apPOL 180' (DRC-1; 180'; concentration 10): 2.016% | % inhibition apPOL 180' (DRC-1; 180'; concentration 20): 13.4425% | % inhibition apPOL 180' (DRC-1; 180'; concentration 40): 32.4259% | % inhibition apPOL 180' (DRC-1; 180'; concentration 80): 53.4351% | % inhibition Apo pol 5' (DRC-2, 5', concentration 2.5): 9% | % inhibition Apo pol 5' (DRC-2, 5', concentration 5): 10% | % inhibition Apo pol 5' (DRC-2, 5', concentration 10): 23% | % inhibition Apo pol 5' (DRC-2, 5', concentration 20): 31% | % inhibition Apo pol 5' (DRC-2, 5', concentration 40): 47% | % inhibition Apo pol 5' (DRC-2, 5', concentration 80): 58% | % inhibition Apol 40' (DRC-2, 40', concentration 2.5): 5% | % inhibition Apol 40' (DRC-2, 40', concentration 5): 7% | % inhibition Apol 40' (DRC-2, 40', concentration 10): 19% | % inhibition Apol 40' (DRC-2, 40', concentration 20): 27% | % inhibition Apol 40' (DRC-2, 40', concentration 40): 48% | % inhibition Apol 40' (DRC-2, 40', concentration 80): 64% | % inhibition ApPOL 90' (DRC-2, 90', concentration 2.5): 2.82% | % inhibition ApPOL 90' (DRC-2, 90', concentration 5): 2.82% | % inhibition ApPOL 90' (DRC-2, 90', concentration 10): 15% | % inhibition ApPOL 90' (DRC-2, 90', concentration 20): 22% | % inhibition ApPOL 90' (DRC-2, 90', concentration 40): 44% | % inhibition ApPOL 90' (DRC-2, 90', concentration 80): 62% | % inhibition apPOL 180' (DRC-2, 180', concentration 2.5): -3.39% | % inhibition apPOL 180' (DRC-2, 180', concentration 5): -3.25% | % inhibition apPOL 180' (DRC-2, 180', concentration 10): 5% | % inhibition apPOL 180' (DRC-2, 180', concentration 20): 12% | % inhibition apPOL 180' (DRC-2, 180', concentration 40): 32% | % inhibition apPOL 180' (DRC-2, 180', concentration 80): 55% | % inhibition Apol 40' (conc 2.5 (unit not given); 40'; DRC-2): 5% | % inhibition ApPOL 90' (conc 2.5 (unit not given); 90'; DRC-2): 2.82% | % inhibition ApPOL 90' (conc 5 (unit not given); 90'; DRC-2): 2.82% | % inhibition apPOL 180' (conc 10 (unit not given); 180'; DRC-2): 5% | DNA Pol (primary screen hit value, DNA Pol (186 hits); 90 min, 10 µM): 82

O=C(Nc1c2c(nn1-c1ccc(Oc3ccccc3)cc1)CSC2)c1ccco1 [KU0055927]
% inhibition Apo pol 10' (DRC-1; 10'; concentration 2.5): 13.8958% | % inhibition Apo pol 10' (DRC-1; 10'; concentration 5): 29.5283% | % inhibition Apo pol 10' (DRC-1; 10'; concentration 10): 43.1911% | % inhibition Apo pol 10' (DRC-1; 10'; concentration 20): 76.7664% | % inhibition Apo pol 10' (DRC-1; 10'; concentration 40): 85.1313% | % inhibition Apo pol 10' (DRC-1; 10'; concentration 80): 86.5336% | % inhibition Apol 90' (DRC-1; 90'; concentration 2.5): 4.683% | % inhibition Apol 90' (DRC-1; 90'; concentration 5): 16.7633% | % inhibition Apol 90' (DRC-1; 90'; concentration 10): 30.4357% | % inhibition Apol 90' (DRC-1; 90'; concentration 20): 68.2983% | % inhibition Apol 90' (DRC-1; 90'; concentration 40): 80.3407% | % inhibition Apol 90' (DRC-1; 90'; concentration 80): 86.0743% | % inhibition apPOL 180' (DRC-1; 180'; concentration 2.5): -2.927% | % inhibition apPOL 180' (DRC-1; 180'; concentration 5): 5.714% | % inhibition apPOL 180' (DRC-1; 180'; concentration 10): 15.8435% | % inhibition apPOL 180' (DRC-1; 180'; concentration 20): 54.9886% | % inhibition apPOL 180' (DRC-1; 180'; concentration 40): 72.0227% | % inhibition apPOL 180' (DRC-1; 180'; concentration 80): 82.6026% | % inhibition Apol 40' (DRC-2, 40', concentration 5 (unit not given)): 12% | % inhibition Apol 40' (DRC-2, 40', concentration 40 (unit not given)): 69% | % inhibition apPOL 180' (DRC-2, 180', concentration 40 (unit not given)): 69% | % inhibition Apo pol 5' (DRC-2; 5'; concentration 2.5): 8.44% | % inhibition Apo pol 5' (DRC-2; 5'; concentration 5): 12% | % inhibition Apo pol 5' (DRC-2; 5'; concentration 5 (unit not given)): 12% | % inhibition Apo pol 5' (DRC-2; 5'; concentration 10): 40% | % inhibition Apo pol 5' (DRC-2; 5'; concentration 20): 51% | % inhibition Apo pol 5' (DRC-2; 5'; concentration 40): 54% | % inhibition Apo pol 5' (DRC-2; 5'; concentration 80): 55% | % inhibition Apol 40' (DRC-2; 40'; concentration 2.5): 9% | % inhibition Apol 40' (DRC-2; 40'; concentration 5): 12% | % inhibition Apol 40' (DRC-2; 40'; concentration 10): 47% | % inhibition Apol 40' (DRC-2; 40'; concentration 20): 65% | % inhibition Apol 40' (DRC-2; 40'; concentration 40): 69% | % inhibition Apol 40' (DRC-2; 40'; concentration 80): 72% | % inhibition ApPOL 90' (DRC-2; 90'; concentration 2.5): 7% | % inhibition ApPOL 90' (DRC-2; 90'; concentration 5): 9.5% | % inhibition ApPOL 90' (DRC-2; 90'; concentration 10): 45% | % inhibition ApPOL 90' (DRC-2; 90'; concentration 20): 66% | % inhibition ApPOL 90' (DRC-2; 90'; concentration 40): 71% | % inhibition ApPOL 90' (DRC-2; 90'; concentration 80): 75% | % inhibition apPOL 180' (DRC-2; 180'; concentration 2.5): 4% | % inhibition apPOL 180' (DRC-2; 180'; concentration 5): 3.19% | % inhibition apPOL 180' (DRC-2; 180'; concentration 10): 35% | % inhibition apPOL 180' (DRC-2; 180'; concentration 20): 62% | % inhibition apPOL 180' (DRC-2; 180'; concentration 40): 69% | % inhibition apPOL 180' (DRC-2; 180'; concentration 80): 77% | DNA Pol (primary screen value of the 186 hits; unit not given; 90 min, 10 µM): 57 | DNA Pol (primary screen value, head "DNA Pol", unit not given; 90 min, 10 µM): 57
